Reference: article doi:10.1101/2025.01.28.635346v1 (bioRxiv, 2025)
Bridge positions count the residues as written; N and C are the ends. Side chains are listed from the residue outwards. Peptide text beside a SMILES is read from it. * marks the point of attachment. Butanoyl(4-(4-I-phenyl)) = O=C(CCCc1ccc(I)cc1)*; PEG2 = NCCOCCOCCC(=O)O

Columns and labels:
[1] = Pharmacokinetics in female Balb/c mice; format: in vivo, mouse
[2] = Plasma stability, human plasma; format: in vitro ADME
ADRB1 = ADRB1 (Homo sapiens, UniProt P08588); test: Safetyscan47 GPCR cAMP, Agonist; format: cell-based
Sequence of ADRB1 (P08588 whole entry): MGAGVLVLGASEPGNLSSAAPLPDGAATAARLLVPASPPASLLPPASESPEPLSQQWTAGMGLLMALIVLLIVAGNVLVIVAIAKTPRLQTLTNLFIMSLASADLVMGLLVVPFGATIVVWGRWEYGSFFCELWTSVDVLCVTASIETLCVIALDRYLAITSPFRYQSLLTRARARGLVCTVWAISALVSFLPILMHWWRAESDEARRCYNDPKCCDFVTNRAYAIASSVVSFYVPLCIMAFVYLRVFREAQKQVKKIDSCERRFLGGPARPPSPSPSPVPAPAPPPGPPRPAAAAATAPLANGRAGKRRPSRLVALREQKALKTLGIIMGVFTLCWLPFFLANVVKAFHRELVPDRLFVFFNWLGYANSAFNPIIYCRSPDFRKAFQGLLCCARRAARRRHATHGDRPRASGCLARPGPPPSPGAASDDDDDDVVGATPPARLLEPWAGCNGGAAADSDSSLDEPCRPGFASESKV

KvLQT1/minK = KvLQT1/minK (Homo sapiens, UniProt P15382+P51787); test: Safetyscan47 Ion Channel, Blocker; format: cell-based
Sequence of KvLQT1/minK (P51787 whole entry): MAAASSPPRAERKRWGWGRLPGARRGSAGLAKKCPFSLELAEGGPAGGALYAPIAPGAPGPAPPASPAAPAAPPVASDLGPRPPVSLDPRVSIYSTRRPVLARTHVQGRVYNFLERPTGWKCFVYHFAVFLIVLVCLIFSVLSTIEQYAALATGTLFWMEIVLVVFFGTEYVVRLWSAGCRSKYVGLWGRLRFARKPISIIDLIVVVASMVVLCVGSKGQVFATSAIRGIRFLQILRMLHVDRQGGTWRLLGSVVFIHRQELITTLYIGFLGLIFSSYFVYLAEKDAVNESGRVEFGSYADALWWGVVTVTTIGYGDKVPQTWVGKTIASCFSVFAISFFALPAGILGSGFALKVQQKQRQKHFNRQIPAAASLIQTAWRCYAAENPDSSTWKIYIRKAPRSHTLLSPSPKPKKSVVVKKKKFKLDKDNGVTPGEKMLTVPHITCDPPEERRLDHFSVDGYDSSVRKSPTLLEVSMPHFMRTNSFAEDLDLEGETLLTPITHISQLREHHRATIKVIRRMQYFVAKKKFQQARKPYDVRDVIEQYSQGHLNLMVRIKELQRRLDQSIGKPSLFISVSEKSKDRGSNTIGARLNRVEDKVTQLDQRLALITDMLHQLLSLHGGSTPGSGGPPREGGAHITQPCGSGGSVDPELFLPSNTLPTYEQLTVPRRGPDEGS

ADRA1A = molecular target: T1, ADRA1A (Homo sapiens, UniProt P35348); test: Safetyscan47 GPCR Calcium Flux, Antagonist; format: cell-based
T1 sequence (P35348 1-466): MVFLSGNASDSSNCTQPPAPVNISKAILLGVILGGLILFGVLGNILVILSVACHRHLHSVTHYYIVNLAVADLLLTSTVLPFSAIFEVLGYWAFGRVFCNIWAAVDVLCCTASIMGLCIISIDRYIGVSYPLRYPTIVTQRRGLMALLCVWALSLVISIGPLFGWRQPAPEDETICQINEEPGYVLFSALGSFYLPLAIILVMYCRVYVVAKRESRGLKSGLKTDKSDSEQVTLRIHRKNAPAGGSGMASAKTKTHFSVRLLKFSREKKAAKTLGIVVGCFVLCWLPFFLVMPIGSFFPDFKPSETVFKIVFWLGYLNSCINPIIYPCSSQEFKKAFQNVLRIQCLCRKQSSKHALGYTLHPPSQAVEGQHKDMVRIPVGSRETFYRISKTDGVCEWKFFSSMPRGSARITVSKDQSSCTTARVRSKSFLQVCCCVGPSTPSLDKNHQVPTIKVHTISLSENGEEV

integrin αvβ5 = integrin αvβ5 (Homo sapiens, UniProt P06756+P18084); test: ELISA competition assay, integrin αvβ5; format: binding
Sequence of integrin αvβ5 (P06756 31-992 limits assumed): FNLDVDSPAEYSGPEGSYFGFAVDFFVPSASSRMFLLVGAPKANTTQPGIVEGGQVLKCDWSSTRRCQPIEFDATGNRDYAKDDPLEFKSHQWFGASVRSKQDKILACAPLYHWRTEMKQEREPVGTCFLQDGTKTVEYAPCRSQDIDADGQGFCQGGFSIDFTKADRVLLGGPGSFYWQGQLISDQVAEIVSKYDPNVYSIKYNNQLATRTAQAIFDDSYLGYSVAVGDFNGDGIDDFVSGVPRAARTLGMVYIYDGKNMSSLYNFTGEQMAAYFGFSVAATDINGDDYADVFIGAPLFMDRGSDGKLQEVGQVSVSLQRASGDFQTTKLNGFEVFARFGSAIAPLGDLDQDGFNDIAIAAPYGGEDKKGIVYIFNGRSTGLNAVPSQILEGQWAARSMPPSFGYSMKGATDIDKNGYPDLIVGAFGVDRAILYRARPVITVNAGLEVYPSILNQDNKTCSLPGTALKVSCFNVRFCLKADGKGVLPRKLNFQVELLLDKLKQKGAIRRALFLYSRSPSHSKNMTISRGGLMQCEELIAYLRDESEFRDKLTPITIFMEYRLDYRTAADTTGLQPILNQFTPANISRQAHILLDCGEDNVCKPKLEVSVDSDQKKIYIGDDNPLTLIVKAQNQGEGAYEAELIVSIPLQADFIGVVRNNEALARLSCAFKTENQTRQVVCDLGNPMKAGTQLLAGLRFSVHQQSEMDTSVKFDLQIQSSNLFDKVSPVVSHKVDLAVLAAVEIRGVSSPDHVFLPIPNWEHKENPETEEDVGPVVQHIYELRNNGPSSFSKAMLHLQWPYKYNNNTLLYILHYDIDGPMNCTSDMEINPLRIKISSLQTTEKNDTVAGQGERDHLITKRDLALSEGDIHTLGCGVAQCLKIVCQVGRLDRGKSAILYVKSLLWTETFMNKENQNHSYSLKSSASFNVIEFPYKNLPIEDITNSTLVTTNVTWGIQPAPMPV
Sequence of integrin αvβ5 (P18084 24-719 limits assumed): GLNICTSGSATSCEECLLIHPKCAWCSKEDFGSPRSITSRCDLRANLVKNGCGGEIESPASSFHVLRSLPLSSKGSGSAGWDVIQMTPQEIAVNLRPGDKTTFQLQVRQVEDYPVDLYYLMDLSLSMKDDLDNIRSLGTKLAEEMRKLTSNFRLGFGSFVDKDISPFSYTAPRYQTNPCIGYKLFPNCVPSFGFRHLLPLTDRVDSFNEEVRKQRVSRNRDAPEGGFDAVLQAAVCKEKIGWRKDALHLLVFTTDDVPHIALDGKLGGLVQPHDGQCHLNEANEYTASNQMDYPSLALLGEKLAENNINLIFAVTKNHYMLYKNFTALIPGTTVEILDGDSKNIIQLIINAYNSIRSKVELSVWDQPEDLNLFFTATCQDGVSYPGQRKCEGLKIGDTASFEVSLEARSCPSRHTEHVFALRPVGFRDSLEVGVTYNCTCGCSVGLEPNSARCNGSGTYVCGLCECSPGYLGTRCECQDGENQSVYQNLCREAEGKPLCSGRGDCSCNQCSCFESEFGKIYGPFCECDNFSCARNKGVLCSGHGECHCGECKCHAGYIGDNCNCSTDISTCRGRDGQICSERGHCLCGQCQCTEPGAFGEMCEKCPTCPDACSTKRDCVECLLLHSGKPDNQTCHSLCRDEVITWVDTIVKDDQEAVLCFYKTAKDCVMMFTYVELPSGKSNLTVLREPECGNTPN

MAOA = molecular target: T2, MAOA (Homo sapiens, UniProt P21397); test: Safetyscan47 Non-Kinase Enzymes Enzymatic, Inhibitor; format: biochemical
T2 sequence (P21397 1-527): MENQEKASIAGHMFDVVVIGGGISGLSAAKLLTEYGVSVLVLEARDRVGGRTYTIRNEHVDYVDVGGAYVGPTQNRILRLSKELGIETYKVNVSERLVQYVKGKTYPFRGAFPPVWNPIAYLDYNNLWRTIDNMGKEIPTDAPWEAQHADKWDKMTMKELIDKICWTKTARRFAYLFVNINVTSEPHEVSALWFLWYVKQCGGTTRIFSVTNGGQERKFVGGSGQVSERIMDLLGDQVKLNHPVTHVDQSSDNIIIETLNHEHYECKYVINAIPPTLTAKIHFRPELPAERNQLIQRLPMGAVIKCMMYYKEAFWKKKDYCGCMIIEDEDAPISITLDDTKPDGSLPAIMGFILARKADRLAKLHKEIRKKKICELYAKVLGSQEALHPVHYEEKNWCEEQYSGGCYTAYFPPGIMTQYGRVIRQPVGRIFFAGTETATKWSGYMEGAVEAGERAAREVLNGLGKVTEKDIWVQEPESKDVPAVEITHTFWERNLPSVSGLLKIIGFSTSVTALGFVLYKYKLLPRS

AChE = AChE (Homo sapiens, UniProt P22303); test: as above; format: biochemical
Sequence of AChE (P22303 32-614): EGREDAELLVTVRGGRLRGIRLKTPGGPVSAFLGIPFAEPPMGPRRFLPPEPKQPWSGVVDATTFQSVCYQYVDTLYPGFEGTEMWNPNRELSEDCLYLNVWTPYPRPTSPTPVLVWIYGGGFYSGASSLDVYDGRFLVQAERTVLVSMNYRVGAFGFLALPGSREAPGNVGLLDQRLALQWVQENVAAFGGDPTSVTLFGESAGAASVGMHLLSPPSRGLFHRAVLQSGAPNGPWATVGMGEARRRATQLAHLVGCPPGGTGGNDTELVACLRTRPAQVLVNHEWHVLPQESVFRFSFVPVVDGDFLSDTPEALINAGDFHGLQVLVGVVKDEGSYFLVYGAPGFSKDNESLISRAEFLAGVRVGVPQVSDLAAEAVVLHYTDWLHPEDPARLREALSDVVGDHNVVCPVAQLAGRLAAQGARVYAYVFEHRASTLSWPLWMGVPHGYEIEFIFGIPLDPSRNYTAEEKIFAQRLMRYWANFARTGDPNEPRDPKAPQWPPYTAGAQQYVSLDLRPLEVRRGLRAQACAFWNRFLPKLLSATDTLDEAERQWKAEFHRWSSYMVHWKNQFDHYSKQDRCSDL

[3] = Table S3D, IP 10 mg/kg, mouse, animal 1F005
[4] = Table S3D, SC 10 mg/kg, mouse, animal 2F001
[5] = Table S3D, SC 10 mg/kg, mouse, animal 2F002
[6] = Table S3D, SC 10 mg/kg, mouse, animal 2F003
[7] = Table S3D, SC 10 mg/kg, mouse, animal 2F004
[8] = Table S3D, SC 10 mg/kg, mouse, animal 2F005
[9] = female, Balb/c, mouse, plasma, ip, 10 mg/kg
[10] = female, Balb/c, mouse, plasma, ip, 30 mg/kg
[11] = female, Balb/c, mouse, plasma, sc, 10 mg/kg

SMILES: CC[C@H](C)[C@H](NC(=O)[C@H](CC(C)C)NC(=O)[C@H](CC(=O)O)NC(=O)CNC(=O)[C@H](CCCNC(=N)N)NC(=O)[C@@H](NC(=O)[C@H](Cc1ccccc1)NC(=O)[C@H](Cc1ccc(O)cc1)NC(=O)[C@@H]1CCC(=O)NCC(=O)NCC(=O)N[C@@H](CCCNC(=N)N)C(=O)NCC(=O)N[C@@H](Cc2c[nH]cn2)C(=O)N[C@@H](C(C)C)C(=O)N2CCC[C@H]2C(=O)N1)C(C)C)C(=O)N[C@@H](CO)C(=O)N[C@@H](Cc1ccccc1)C(=O)N[C@@H](Cc1ccc(O)cc1)C(=O)N[C@@H](CCCCNC(=O)CCOCCOCCNC(=O)CCCc1ccc(I)cc1)C(=O)O [lassotide 47] (GGRGHVPEYFVRGDLISFYK([PEG2-Butanoyl(4-(4-I-phenyl))])-OH; lactam N-8)
- Tmax [1, 3]: 1.0 h
- Vz/F [1, 3]: 0.0919 L/kg
- t1/2 [1, 3]: 4.1 h
- AUCINF [1, 4]: 546 µg·h/mL
- AUClast [1, 4]: 528 µg·h/mL
- CL/F [1, 4]: 0.305 mL/min/kg
- Cmax [1, 4]: 45.7 µg/mL
- Tmax [1, 4]: 4.0 h
- Vz/F [1, 4]: 0.115 L/kg
- t1/2 [1, 4]: 4.3 h
- AUCINF [1, 5]: 469 µg·h/mL
- AUClast [1, 5]: 455 µg·h/mL
- CL/F [1, 5]: 0.355 mL/min/kg
- Cmax [1, 5]: 44.7 µg/mL
- Tmax [1, 5]: 4.0 h
- Vz/F [1, 5]: 0.144 L/kg
- t1/2 [1, 5]: 4.7 h
- AUCINF [1, 6]: 596 µg·h/mL
- AUClast [1, 6]: 567 µg·h/mL
- CL/F [1, 6]: 0.280 mL/min/kg
- Cmax [1, 6]: 56.8 µg/mL
- Tmax [1, 6]: 4.0 h
- Vz/F [1, 6]: 0.123 L/kg
- t1/2 [1, 6]: 5.1 h
- AUCINF [1, 7]: 635 µg·h/mL
- AUClast [1, 7]: 609 µg·h/mL
- CL/F [1, 7]: 0.262 mL/min/kg
- Cmax [1, 7]: 57.9 µg/mL
- Tmax [1, 7]: 4.0 h
- Vz/F [1, 7]: 0.114 L/kg
- t1/2 [1, 7]: 5.0 h
- AUCINF [1, 8]: 558 µg·h/mL
- AUClast [1, 8]: 541 µg·h/mL
- CL/F [1, 8]: 0.299 mL/min/kg
- Cmax [1, 8]: 50 µg/mL
- Tmax [1, 8]: 4.0 h
- Vz/F [1, 8]: 0.12 L/kg
- t1/2 [1, 8]: 4.7 h
- t1/2 ([1]; Table S3D: IP 10 mg/kg, Mean N=5): 4.46 h
- AUC(0-inf) [1, 9]: 577 µg·h/mL
- AUC(0-t) [1, 9]: 561 µg·h/mL
- CL/F [1, 9]: 0.292 mL/min/kg
- Cmax [1, 9]: 66.5 µg/mL
- Tmax [1, 9]: 1.8 h
- Vd/F [1, 9]: 0.113 L/kg
- half-life [1, 9]: 4.5 h
- AUC(0-t) [1, 10]: 1740 µg·h/mL
- CL/F [1, 10]: 0.278 mL/min/kg
- Cmax [1, 10]: 166 µg/mL
- Tmax [1, 10]: 2.8 h
- AUC(0-inf) [1, 11]: 561 µg·h/mL
- AUC(0-t) [1, 11]: 540 µg·h/mL
- CL/F [1, 11]: 0.3 mL/min/kg
- Cmax [1, 11]: 51 µg/mL
- Tmax [1, 11]: 4 h
- Vd/F [1, 11]: 0.123 L/kg
- half-life [1, 11]: 4.75 h
- remaining at 0.5 h, 2 μM [2]: 95.1%
- remaining at 4 h, 2 μM [2]: 92.2%
- EC50 (ADRB1): > 45 µM
- Emax (ADRB1; read-out: Max Response): 0%
- IC50 (KvLQT1/minK): > 45 µM
- Emax (KvLQT1/minK; read-out: Max Response): 24.8%
- IC50 (ADRA1A): > 45 µM
- Emax (ADRA1A; read-out: Max Response): 2.58%
- IC50 (integrin αvβ5): > 10 µM
- IC50 (MAOA): > 45 µM
- Emax (MAOA; read-out: Max Response): 0%
- IC50 (AChE): > 45 µM
- Emax (AChE; read-out: Max Response): 7.88%
